Legend:
Assay in all cases: relative viability (nuclei count vs DMSO), 5 days (fraction); higher = more cells survive
NCI-H1666 = tested on: NCI-H1666
Procedure, shortened: (§1)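 Nuclei were stained with Hoechst during a one-step fixation (final 0.05% Triton X-100, 1% formaldehyde, 1 ug/ml Hoechst) carried out 5 days after dosing, then counted on 4× images. The cells, lung cancer lines in 1536-well plates, had been dosed by pin tool the day after seeding with one drug alone or a fixed anchor-drug dose plus five library-drug doses (not always all listed) in √10 steps. Relative viability is the nuclei count in treated wells divided by that in vehicle wells, and each value is the median of duplicate plates.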

NCI-H2170 = tested on: NCI-H2170
Procedure, shortened: as §1

NCI-H1437 = tested on: NCI-H1437
Procedure, shortened: as §1

LK-2 = tested on: LK-2
Procedure, shortened: as §1

BEN = tested on: BEN
Procedure, shortened: as §1

NCI-H1993 = tested on: NCI-H1993
Procedure, shortened: as §1

EKVX = tested on: EKVX
Procedure, shortened: as §1

PC-14 = tested on: PC-14
Procedure, shortened: as §1

SK-MES-1 = tested on: SK-MES-1
Procedure, shortened: as §1

RERF-LC-KJ = tested on: RERF-LC-KJ
Procedure, shortened: as §1

NCI-H661 = tested on: NCI-H661
Procedure, shortened: as §1

NCI-H727 = tested on: NCI-H727
Procedure, shortened: as §1

LCLC-103H = tested on: LCLC-103H
Procedure, shortened: as §1

LOU-NH91 = tested on: LOU-NH91
Procedure, shortened: as §1

ChaGo-K-1 = tested on: ChaGo-K-1
Procedure, shortened: as §1

NCI-H441 = tested on: NCI-H441
Procedure, shortened: as §1

LXF-289 = tested on: LXF-289
Procedure, shortened: as §1

NCI-H1944 = tested on: NCI-H1944
Procedure, shortened: as §1

NCI-H647 = tested on: NCI-H647
Procedure, shortened: as §1

NCI-H2126 = tested on: NCI-H2126
Procedure, shortened: as §1

NCI-H1355 = tested on: NCI-H1355
Procedure, shortened: as §1

HOP-62 = tested on: HOP-62
Procedure, shortened: as §1

HCC-827 = tested on: HCC-827
Procedure, shortened: as §1

`CCNC(=O)c1noc(-c2cc(C(C)C)c(O)cc2O)c1-c1ccc(CN2CCOCC2)cc1` [Luminespib] + O=C(c1cc(Cc2n[nH]c(=O)c3ccccc23)ccc1F)N1CCN(C(=O)C2CC2)CC1 [Olaparib] (partner 8 µM) showed a relative viability (NCI-H1666; first compound 0.002 µM) of 0.778, a relative viability (NCI-H1666; first compound 0.006325 µM) of 0.733 and a relative viability (NCI-H1666; first compound 0.02 µM) of 0.753. The relative viability (NCI-H1666; first compound 0.06325 µM) was 0.75, the relative viability (NCI-H1666; first compound 0.2 µM) was 0.716 and the relative viability (NCI-H2170; first compound 0.002 µM) was 0.659. It also gave a relative viability (NCI-H2170; first compound 0.006325 µM) of 0.539, a relative viability (NCI-H2170; first compound 0.06325 µM) of 0.468 and a relative viability (NCI-H2170; first compound 0.2 µM) of 0.16. It also gave a relative viability (NCI-H1437; first compound 0.002 µM) of 0.806, a relative viability (NCI-H1437; first compound 0.006325 µM) of 0.63 and a relative viability (NCI-H1437; first compound 0.02 µM) of 0.684. It also gave a relative viability (NCI-H1437; first compound 0.06325 µM) of 0.259, a relative viability (NCI-H1437; first compound 0.2 µM) of 0.211 and a relative viability (LK-2; first compound 0.002 µM) of 0.884. The relative viability (LK-2; first compound 0.006325 µM) was 0.89, the relative viability (LK-2; first compound 0.02 µM) was 0.519 and the relative viability (LK-2; first compound 0.06325 µM) was 0.11. It also gave a relative viability (LK-2; first compound 0.2 µM) of 0.114, a relative viability (BEN; first compound 0.002 µM) of 1.24 and a relative viability (BEN; first compound 0.006325 µM) of 0.905. It also gave a relative viability (BEN; first compound 0.02 µM) of 0.823, a relative viability (BEN; first compound 0.06325 µM) of 0.273 and a relative viability (BEN; first compound 0.2 µM) of 0.279. It also gave a relative viability (NCI-H1993; first compound 0.002 µM) of 1.09, a relative viability (NCI-H1993; first compound 0.006325 µM) of 0.953 and a relative viability (NCI-H1993; first compound 0.02 µM) of 0.617. The relative viability (NCI-H1993; first compound 0.06325 µM) was 0.903, the relative viability (NCI-H1993; first compound 0.2 µM) was 0.39 and the relative viability (EKVX; first compound 0.002 µM) was 0.881. For the same compound, the relative viability (EKVX; first compound 0.006325 µM) was 0.881, the relative viability (EKVX; first compound 0.02 µM) was 0.651 and the relative viability (EKVX; first compound 0.06325 µM) was 0.541. The relative viability (EKVX; first compound 0.2 µM) was 0.155, the relative viability (PC-14; first compound 0.002 µM) was 0.288 and the relative viability (PC-14; first compound 0.006325 µM) was 0.261. It also gave a relative viability (PC-14; first compound 0.02 µM) of 0.101, a relative viability (PC-14; first compound 0.06325 µM) of 0.0578 and a relative viability (PC-14; first compound 0.2 µM) of 0.0514. For the same compound, the relative viability (SK-MES-1; first compound 0.002 µM) was 0.713, the relative viability (SK-MES-1; first compound 0.006325 µM) was 0.629 and the relative viability (SK-MES-1; first compound 0.02 µM) was 0.326. For the same compound, the relative viability (SK-MES-1; first compound 0.06325 µM) was 0.17, the relative viability (SK-MES-1; first compound 0.2 µM) was 0.157 and the relative viability (RERF-LC-KJ; first compound 0.002 µM) was 0.857. It also gave a relative viability (RERF-LC-KJ; first compound 0.006325 µM) of 0.934, a relative viability (RERF-LC-KJ; first compound 0.02 µM) of 0.49 and a relative viability (RERF-LC-KJ; first compound 0.06325 µM) of 0.235. The relative viability (RERF-LC-KJ; first compound 0.2 µM) was 0.212, the relative viability (NCI-H661; first compound 0.002 µM) was 0.754 and the relative viability (NCI-H661; first compound 0.006325 µM) was 0.804. For the same compound, the relative viability (NCI-H661; first compound 0.02 µM) was 0.807, the relative viability (NCI-H661; first compound 0.06325 µM) was 0.414 and the relative viability (NCI-H661; first compound 0.2 µM) was 0.3. The relative viability (NCI-H727; first compound 0.002 µM) was 0.674, the relative viability (NCI-H727; first compound 0.006325 µM) was 0.767 and the relative viability (NCI-H727; first compound 0.02 µM) was 0.695. The relative viability (NCI-H727; first compound 0.06325 µM) was 0.403, the relative viability (NCI-H727; first compound 0.2 µM) was 0.271 and the relative viability (LCLC-103H; first compound 0.002 µM) was 0.76. The relative viability (LCLC-103H; first compound 0.006325 µM) was 0.73, the relative viability (LCLC-103H; first compound 0.02 µM) was 0.78 and the relative viability (LCLC-103H; first compound 0.06325 µM) was 0.681. It also gave a relative viability (LCLC-103H; first compound 0.2 µM) of 0.809, a relative viability (LOU-NH91; first compound 0.002 µM) of 0.967 and a relative viability (LOU-NH91; first compound 0.006325 µM) of 0.89. It also gave a relative viability (LOU-NH91; first compound 0.02 µM) of 0.445, a relative viability (LOU-NH91; first compound 0.06325 µM) of 0.351 and a relative viability (LOU-NH91; first compound 0.2 µM) of 0.348. The relative viability (ChaGo-K-1; first compound 0.002 µM) was 0.42, the relative viability (ChaGo-K-1; first compound 0.006325 µM) was 0.407 and the relative viability (ChaGo-K-1; first compound 0.02 µM) was 0.439. For the same compound, the relative viability (ChaGo-K-1; first compound 0.06325 µM) was 0.452, the relative viability (ChaGo-K-1; first compound 0.2 µM) was 0.36 and the relative viability (NCI-H441; first compound 0.002 µM) was 0.524. It also gave a relative viability (NCI-H441; first compound 0.006325 µM) of 0.569, a relative viability (NCI-H441; first compound 0.02 µM) of 0.714 and a relative viability (NCI-H441; first compound 0.06325 µM) of 0.119. For the same compound, the relative viability (NCI-H441; first compound 0.2 µM) was 0.117, the relative viability (LXF-289; first compound 0.002 µM) was 1.01 and the relative viability (LXF-289; first compound 0.006325 µM) was 1.03. It also gave a relative viability (LXF-289; first compound 0.02 µM) of 1.2, a relative viability (LXF-289; first compound 0.06325 µM) of 0.99 and a relative viability (LXF-289; first compound 0.2 µM) of 0.805. It also gave a relative viability (NCI-H1944; first compound 0.002 µM) of 0.445, a relative viability (NCI-H1944; first compound 0.006325 µM) of 0.394 and a relative viability (NCI-H1944; first compound 0.02 µM) of 0.364. For the same compound, the relative viability (NCI-H1944; first compound 0.06325 µM) was 0.418, the relative viability (NCI-H1944; first compound 0.2 µM) was 0.33 and the relative viability (NCI-H647; first compound 0.002 µM) was 0.536. It also gave a relative viability (NCI-H647; first compound 0.006325 µM) of 0.577, a relative viability (NCI-H647; first compound 0.02 µM) of 0.273 and a relative viability (NCI-H647; first compound 0.06325 µM) of 0.0706. For the same compound, the relative viability (NCI-H647; first compound 0.2 µM) was 0.059, the relative viability (NCI-H2126; first compound 0.002 µM) was 0.924 and the relative viability (NCI-H2126; first compound 0.006325 µM) was 0.887. The relative viability (NCI-H2126; first compound 0.06325 µM) was 0.899, the relative viability (NCI-H2126; first compound 0.2 µM) was 0.903 and the relative viability (NCI-H1355; first compound 0.002 µM) was 0.757. The relative viability (NCI-H1355; first compound 0.006325 µM) was 0.695, the relative viability (NCI-H1355; first compound 0.02 µM) was 0.611 and the relative viability (NCI-H1355; first compound 0.06325 µM) was 0.188. It also gave a relative viability (NCI-H1355; first compound 0.2 µM) of 0.149, a relative viability (HOP-62; first compound 0.002 µM) of 0.533 and a relative viability (HOP-62; first compound 0.006325 µM) of 0.453. For the same compound, the relative viability (HOP-62; first compound 0.02 µM) was 0.723, the relative viability (HOP-62; first compound 0.06325 µM) was 0.0994 and the relative viability (HOP-62; first compound 0.2 µM) was 0.138. For the same compound, the relative viability (HCC-827; first compound 0.002 µM) was 0.595, the relative viability (HCC-827; first compound 0.006325 µM) was 0.64 and the relative viability (HCC-827; first compound 0.02 µM) was 0.537. It also gave a relative viability (HCC-827; first compound 0.06325 µM) of 0.143 and a relative viability (HCC-827; first compound 0.2 µM) of 0.167.
